Calls of active or inactive are those of the source.
What was measured:
[1] = target: Nonstructural protein 1 (Influenza A virus, UniProt Q194T2); assay type: functional, Influenza A virus (A/California/07/2009(H1N1))
[2] = HEK-293T cell viability reduction – luminescence, B-cell screen hits, cytotoxicity control for BCR NF-kB inhibitor project, dose response (AID 489021); assay type: functional, cell-based;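 further: HEK-293T cells carrying an NF-kB luciferase reporter; cells exposed to compound for about 14 hours before viability readout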
[3] = cells; assay type: functional, cell-based
[4] = target: T1, Corticotropin-releasing factor receptor 2/Corticotropin-releasing factor-binding protein (Homo sapiens, UniProt P24387+Q13324); assay: activators of CRF receptor 2 with binding protein – uHTS hits, confirmation (AID 602473); assay type: functional; conditions: read-out: EC50_Mean
T1 sequence (Q13324 whole entry): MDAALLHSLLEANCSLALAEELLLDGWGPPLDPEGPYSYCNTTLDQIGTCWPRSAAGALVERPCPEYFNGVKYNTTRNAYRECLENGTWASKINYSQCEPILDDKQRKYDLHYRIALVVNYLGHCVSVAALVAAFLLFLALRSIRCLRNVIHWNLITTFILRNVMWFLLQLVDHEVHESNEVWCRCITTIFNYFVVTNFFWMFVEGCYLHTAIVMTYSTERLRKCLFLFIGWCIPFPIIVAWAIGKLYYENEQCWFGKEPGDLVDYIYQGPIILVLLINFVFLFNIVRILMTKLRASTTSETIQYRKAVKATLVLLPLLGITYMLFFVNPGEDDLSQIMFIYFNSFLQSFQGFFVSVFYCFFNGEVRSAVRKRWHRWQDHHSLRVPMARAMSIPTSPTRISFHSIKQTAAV
T1 sequence (P24387 whole entry): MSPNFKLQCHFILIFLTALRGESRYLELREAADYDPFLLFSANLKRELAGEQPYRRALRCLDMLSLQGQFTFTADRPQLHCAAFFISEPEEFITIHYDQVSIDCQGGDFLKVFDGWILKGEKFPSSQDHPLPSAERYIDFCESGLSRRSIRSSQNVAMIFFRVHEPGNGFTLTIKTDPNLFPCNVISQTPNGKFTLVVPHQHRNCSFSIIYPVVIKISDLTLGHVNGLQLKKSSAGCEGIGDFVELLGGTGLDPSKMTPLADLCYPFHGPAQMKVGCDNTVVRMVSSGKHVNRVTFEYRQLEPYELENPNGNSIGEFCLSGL

[5] = cells; assay type: functional, cell-based; remark: listed apart in the source
[6] = target: T1, Corticotropin-releasing factor receptor 2/Corticotropin-releasing factor-binding protein; assay: Dose Response confirmation of uHTS hits for small molecule antagonists of the CRF-binding protein and CRF-R2 receptor complex.; assay type: functional; conditions: read-out: IC50_Mean
[7] = target: T2, Short transient receptor potential channel 4 (Mus musculus, UniProt Q9QUQ5); assay: block of DAMGO-driven TRPC4 calcium entry – cell-based, HEK293 TRPC4/mu-opioid, Fluo-4 calcium, dose response (AID 434942); assay type: functional;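 further: potency of inhibitors blocking the TRPC4 calcium response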
T2 sequence (Q9QUQ5 whole entry): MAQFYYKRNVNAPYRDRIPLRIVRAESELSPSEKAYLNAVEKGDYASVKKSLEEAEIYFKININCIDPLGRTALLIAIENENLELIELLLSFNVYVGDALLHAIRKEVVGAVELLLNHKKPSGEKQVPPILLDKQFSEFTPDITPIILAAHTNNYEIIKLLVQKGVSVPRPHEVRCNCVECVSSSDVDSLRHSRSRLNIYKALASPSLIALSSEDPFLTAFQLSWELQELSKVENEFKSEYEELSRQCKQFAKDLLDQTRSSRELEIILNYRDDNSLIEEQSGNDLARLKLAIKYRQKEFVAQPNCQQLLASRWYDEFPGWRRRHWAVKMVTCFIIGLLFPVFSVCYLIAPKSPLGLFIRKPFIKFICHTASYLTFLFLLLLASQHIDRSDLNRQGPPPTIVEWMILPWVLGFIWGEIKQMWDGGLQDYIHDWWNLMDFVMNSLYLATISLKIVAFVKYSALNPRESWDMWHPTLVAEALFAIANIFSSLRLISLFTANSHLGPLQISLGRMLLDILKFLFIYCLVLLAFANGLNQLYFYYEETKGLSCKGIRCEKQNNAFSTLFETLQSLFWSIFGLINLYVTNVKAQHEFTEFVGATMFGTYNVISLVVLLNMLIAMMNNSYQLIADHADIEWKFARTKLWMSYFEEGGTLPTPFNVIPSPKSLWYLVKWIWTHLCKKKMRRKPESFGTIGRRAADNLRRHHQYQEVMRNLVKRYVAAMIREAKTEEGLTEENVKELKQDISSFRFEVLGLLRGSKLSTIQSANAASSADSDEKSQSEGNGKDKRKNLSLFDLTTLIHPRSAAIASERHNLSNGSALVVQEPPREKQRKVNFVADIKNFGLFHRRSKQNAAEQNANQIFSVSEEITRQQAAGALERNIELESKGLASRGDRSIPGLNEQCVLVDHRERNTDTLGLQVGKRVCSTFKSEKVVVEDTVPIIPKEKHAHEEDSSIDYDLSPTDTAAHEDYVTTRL

[8] = target: T3, Histone-lysine N-methyltransferase NSD2 (Homo sapiens, UniProt O96028); assay type: biochemical
T3 sequence (O96028 whole entry): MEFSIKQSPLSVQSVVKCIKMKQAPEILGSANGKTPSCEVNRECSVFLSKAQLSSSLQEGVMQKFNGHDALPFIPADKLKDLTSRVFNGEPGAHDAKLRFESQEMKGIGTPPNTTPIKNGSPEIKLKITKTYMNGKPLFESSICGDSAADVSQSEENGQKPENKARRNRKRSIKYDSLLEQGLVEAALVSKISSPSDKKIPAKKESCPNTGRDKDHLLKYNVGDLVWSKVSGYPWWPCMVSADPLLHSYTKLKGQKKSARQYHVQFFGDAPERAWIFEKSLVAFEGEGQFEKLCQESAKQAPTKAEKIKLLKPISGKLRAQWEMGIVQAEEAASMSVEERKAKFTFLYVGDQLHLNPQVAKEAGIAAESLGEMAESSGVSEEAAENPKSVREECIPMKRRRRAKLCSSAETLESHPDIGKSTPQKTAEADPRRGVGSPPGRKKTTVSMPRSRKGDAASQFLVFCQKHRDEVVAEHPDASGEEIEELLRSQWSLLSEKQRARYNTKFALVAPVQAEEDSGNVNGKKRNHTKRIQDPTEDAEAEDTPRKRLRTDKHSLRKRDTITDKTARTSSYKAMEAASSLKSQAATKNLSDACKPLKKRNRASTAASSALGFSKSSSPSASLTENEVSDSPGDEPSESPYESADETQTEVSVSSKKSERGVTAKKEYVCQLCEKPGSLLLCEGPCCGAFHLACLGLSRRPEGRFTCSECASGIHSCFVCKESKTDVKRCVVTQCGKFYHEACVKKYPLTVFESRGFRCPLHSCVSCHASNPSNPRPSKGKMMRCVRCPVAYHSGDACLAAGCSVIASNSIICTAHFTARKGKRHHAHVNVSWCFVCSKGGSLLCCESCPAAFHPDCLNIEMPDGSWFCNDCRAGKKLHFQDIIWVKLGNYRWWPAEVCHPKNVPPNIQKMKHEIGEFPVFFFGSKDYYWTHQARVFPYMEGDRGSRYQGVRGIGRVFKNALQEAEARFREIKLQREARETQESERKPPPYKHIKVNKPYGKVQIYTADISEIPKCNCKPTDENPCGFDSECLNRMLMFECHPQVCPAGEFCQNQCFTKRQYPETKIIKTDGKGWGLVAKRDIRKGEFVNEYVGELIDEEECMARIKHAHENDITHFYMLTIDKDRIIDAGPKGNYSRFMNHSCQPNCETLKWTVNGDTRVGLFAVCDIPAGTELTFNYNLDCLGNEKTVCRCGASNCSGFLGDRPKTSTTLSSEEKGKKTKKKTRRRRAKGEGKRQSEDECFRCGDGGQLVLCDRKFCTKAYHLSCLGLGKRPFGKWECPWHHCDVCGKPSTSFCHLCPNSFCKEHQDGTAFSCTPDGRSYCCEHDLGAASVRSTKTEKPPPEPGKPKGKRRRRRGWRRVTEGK

[9] = target: Genome polyprotein (dengue virus type 2, UniProt P29990); assay: flavivirus cap methylation enzyme inhibition – biochemical, confirmation dose response, primary screen (AID 588689); assay type: functional
[10] = loss of viability in HepG2 cells – cell-based, CellTiter-Glo, cherry-picked, cytotoxicity control for Shn3 inhibitor project, dose response (AID 624134); assay type: functional
[11] = non-specific 3'UTR reporter inhibition in Clone20-Shn3RL – cell-based, Renilla luciferase, cherry-picked, counter-screen for Shn3 inhibitor project, dose response (AID 624133); assay type: functional
[12] = target: Protein Wnt-3a (Mus musculus, UniProt P27467); assay: antagonism of Wnt3a pathway luciferase reporter – Wnt-LIGHT cells, luminescence, selectivity assay for Gli-SUFU antagonist project, dose response (AID 651570); assay type: functional; conditions: read-out: IC50_Mean;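 further: Wnt-LIGHT reporter cells stimulated with conditioned medium from Wnt3a-producing cells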
[13] = reduction of Shn3 3'UTR-driven luciferase in osteoblasts – cell-based, Clone20 osteoblasts, firefly luciferase, cherry-picked, dose response (AID 624132); assay type: functional;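 further: firefly luciferase luminescence from reporter carrying the Shn3 3'UTR in osteoblasts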
[14] = target: T4, Ubiquitin-conjugating enzyme E2 N (Homo sapiens, UniProt P61088); assay type: functional;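 further: Dose-response confirmation in a TR-FRET assay detecting UBC13-driven polyubiquitin chain formation, inhibition measured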
T4 sequence (P61088 whole entry): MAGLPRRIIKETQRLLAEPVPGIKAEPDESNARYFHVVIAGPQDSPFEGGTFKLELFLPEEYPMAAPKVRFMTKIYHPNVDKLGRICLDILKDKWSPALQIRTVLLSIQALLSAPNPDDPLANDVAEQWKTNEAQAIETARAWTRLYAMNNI

Sequence of Nonstructural protein 1 (Q194T2 whole entry): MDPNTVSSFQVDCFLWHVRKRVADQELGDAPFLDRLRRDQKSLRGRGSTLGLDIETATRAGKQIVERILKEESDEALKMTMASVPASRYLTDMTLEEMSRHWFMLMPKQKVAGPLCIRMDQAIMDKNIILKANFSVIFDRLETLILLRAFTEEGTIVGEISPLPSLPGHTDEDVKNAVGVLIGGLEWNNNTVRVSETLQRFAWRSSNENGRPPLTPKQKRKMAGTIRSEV
Sequence of Genome polyprotein (P29990 2492-3391 limits assumed): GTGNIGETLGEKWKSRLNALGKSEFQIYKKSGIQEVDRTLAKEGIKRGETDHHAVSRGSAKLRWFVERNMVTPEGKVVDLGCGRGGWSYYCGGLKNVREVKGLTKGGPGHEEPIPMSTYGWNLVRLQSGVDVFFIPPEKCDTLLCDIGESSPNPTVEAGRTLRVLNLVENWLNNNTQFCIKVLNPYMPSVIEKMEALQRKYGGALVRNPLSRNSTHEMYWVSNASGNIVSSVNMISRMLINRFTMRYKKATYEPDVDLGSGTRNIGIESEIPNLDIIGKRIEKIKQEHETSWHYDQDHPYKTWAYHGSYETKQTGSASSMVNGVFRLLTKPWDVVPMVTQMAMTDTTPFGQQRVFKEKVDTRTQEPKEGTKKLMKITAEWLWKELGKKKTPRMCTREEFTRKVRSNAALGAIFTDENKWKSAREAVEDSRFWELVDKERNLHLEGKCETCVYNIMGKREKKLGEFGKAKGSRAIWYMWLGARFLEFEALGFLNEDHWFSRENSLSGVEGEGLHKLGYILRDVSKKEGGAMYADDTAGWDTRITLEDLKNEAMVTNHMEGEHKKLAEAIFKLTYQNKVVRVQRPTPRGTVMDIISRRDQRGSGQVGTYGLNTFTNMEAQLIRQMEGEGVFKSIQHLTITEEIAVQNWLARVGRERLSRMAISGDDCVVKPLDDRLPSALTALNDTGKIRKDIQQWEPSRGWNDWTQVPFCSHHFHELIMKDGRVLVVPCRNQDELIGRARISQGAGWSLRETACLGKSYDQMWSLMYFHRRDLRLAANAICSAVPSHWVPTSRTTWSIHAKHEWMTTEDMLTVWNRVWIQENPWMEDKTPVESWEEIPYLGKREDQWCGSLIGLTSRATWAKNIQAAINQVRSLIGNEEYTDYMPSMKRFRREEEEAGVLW
Sequence of Protein Wnt-3a (P27467 whole entry): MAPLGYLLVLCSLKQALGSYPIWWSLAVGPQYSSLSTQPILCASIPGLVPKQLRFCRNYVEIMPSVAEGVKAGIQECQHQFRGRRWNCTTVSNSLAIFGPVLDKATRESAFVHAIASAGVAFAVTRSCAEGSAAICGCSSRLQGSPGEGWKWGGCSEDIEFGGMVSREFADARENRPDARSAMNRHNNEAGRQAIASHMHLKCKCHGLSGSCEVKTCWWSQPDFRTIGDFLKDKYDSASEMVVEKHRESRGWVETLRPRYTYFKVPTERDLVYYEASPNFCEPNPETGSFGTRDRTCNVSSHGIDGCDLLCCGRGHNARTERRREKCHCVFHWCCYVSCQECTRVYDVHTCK

With O=C(CN1CC(=O)Oc2ccccc21)OCC(=O)c1ccc(Br)cc1 the IC50 [1] was 1.61 µM (active).

For COc1ccc(-c2noc(N3CCC(C(=O)Nc4ccc(F)cc4F)CC3)n2)cc1, the IC50 [2] was > 80 µM (inactive).

With O=C(O)C1C2C=CC(C2)C1C(=O)NCCc1cccc(Cl)c1 (configuration not stated) the IC50 [3] was > 29.9 µM (inactive), the EC50 [4] was > 53 µM (inactive) and the EC50 [5] was > 29.9 µM (inactive). For the same compound, the IC50 [6] was > 47.1 µM (inactive).

With Cc1nn(-c2ccccc2)c2nc(C(F)(F)F)cc(O)c12 the EC50 [7] was 6.68 µM (active).

For Cc1nc(CNS(=O)(=O)c2ccc3ccccc3c2)cs1, the EC50 [4] was > 53 µM (inactive), the IC50 [1] was 37.7 µM (active) and the IC50 [6] was > 47.1 µM (inactive).

In the case of N#Cc1c(Cl)nc2c(c1C#N)CCCC2, the EC50 [4] is reported as > 53 µM (inactive), the AC50 [8] is reported as 11.8 µM (active) and the IC50 [6] is reported as > 47.1 µM (inactive).

With O=C(O)c1ccc(NS(=O)(=O)c2ccc3c(c2)C(=O)c2cc(S(=O)(=O)Nc4ccc(C(=O)O)cc4)ccc2-3)cc1 the IC50 [9] was 95.9 µM (active).

For CN(CCOc1ccc(Cl)cc1)C(=O)c1cccc(S(=O)(=O)N2CCN(c3ccc(F)cc3)CC2)c1, the AC50 [10] was 2.46 µM (active), the AC50 [11] was 6.21 µM (active) and the IC50 [12] was 8.36 µM (active). The AC50 [13] was 1.77 µM (active).

In the case of Cc1ncc(S(=O)(=O)c2ccc(Cl)cc2)c(N)n1, the IC50 [14] is reported as > 20 µM (inactive).

With Cc1cc(Nc2cccc(O)c2)c2ccccc2n1 the EC50 [7] was 5.31 µM (active).

For N#C/C(=C\c1cccc(Cl)c1)C(=O)c1ccccc1, the IC50 [9] was 64.1 µM (active).

In the case of Cc1n[nH]c(=S)n(/N=C/c2ccccn2)c1=O, the IC50 [1] is reported as 6.08 µM (active).
